Assay results from patent publication US6737237B1, “Antimicrobial agents, diagnostic reagents, and vaccines based on unique Apicomplexan parasite components” (Apicomplexan Therapeutics, LLC, priority 1999, dated 2004).
≈ marks a conversion by molar mass, not a printed value. Where “and” joins values, the source holds several entries; their conditions need not be identical. Equal entries are not always repeated. Where two headings read alike, the source gives them in different places.

Legend:
[1] = tested on: T. gondii tachyzoites (RH strain); assay: microbe, parasite or virus in culture; type: cell-based, Toxoplasma gondii
Experimental: The improvements are based on microscopic visual imspection of infected and inhibitor treated cultures, and on quantitation of nucleic acid synthesis of the parasite by measure intake of ^3H uracil onto the parasite's nucleic acid. Uracil is not utilized by mammalian cells. […] Only the RH strain tachyzoites, cultured for up to 72 hours, had been used in previously reported assays. The use of Me49, Ptg, and R5 mutant are unique aspects of the methods used in these assays in this invention.
(§1) In these assays toxicity of a candidate inhibitor was assessed by its ability to prevent growth of human foreskin fibroblasts (HFF) after 4 days and after 8 days as measured by tritiated thymidine uptake and microscopic evaluation. Confluent monolayers of HFF were infected with tachyzoites and bradyzoites. Inhibitor was added one hour later. Non-toxic doses were used in parasite growth inhibition assays. Parasite growth was measured by ability to incorporate tritiated uracil during the last 18 hours of culture.
(§2) First the toxicity of gabaculine was assessed by its ability to prevent growth of human foreskin fibroblasts (HFF) as measured by ^3H-thymidine uptake and microscopic evaluation. Non-toxic doses were used in parasite growth inhibition assays. in vitro parasite growth inhibition assays included confluent monolayers of HFF infected with tachyzoites (RH) or mutant Me49 (R5). Gabaculine was added 1 hour later. Parasite growth was measured by the ability to incorporate ^3H-uracil during the last 18 hours of culture. In addition, parasite growth was evaluated microscopically in Giemsa stained slides.
ii) in vitro Parasite Growth Inhibition Assays: Confluent monolayers of HFF cells, grown in 96-well plates are infected with T. gondii tachyzoites of the RH strain and serial dilutions of anti-microbial compound are applied 1 hour later. T. gondii growth is assessed in these cultures by their ability to incorporate tritiated uracil (2.5 μCi/well) added during the last 18 hours of culture. After harvesting cells with an automatic cell harvester, uracil incorporation is measured by liquid scintillation.

[2] = tested on: T. gondii isocitrate lyase; assay: Isocitrate lyase enzyme activity in T. gondii tachyzoite lysates; type: biochemical, Toxoplasma gondii
Experimental: Parasite lysates were obtained from tachyzoites, suspended in elution buffer (100 mM KCL, 20% gylcerol 7 mM 2-mercaptoethanol, 20 mM Tris-HCL, pH 7.5, and complete protease inhibitor cocktail) [Boehringer Mannheim, 1 table per 50 ml buffer], sonicated 3 times for 3 seconds at 30 sec intervals, and centrifuged at 12,000 g for 15 min. The supernatant collected was applied to a Sephadex® G100 column (25 ml, Pharmacia) equilibrated with elution buffer, eluted with 15 ml of elution buffer,. and ≈1.5 ml fractions were collected. Fraction(s) with the peak protein concentrations (protein analysis performed on a spectrophotometer at 280 nm) were selected and used in enzyme assays.
A discontinuous method descrobed by Ko and McFadden^17 was employed with minor modifications to measure the ability of isocitrate lyase to convert isocitrate to succinate and glyoxylate. This method utilizes the colorimetric reaction between the phenylhydrozone of glyoxylate and ferricyanide. Reaction mixtures (92 mM MOPS, 5 mM MgCL2, 1 mM DTT, 1% phenylhydrazine, 4.4 mM isocitrate, in 0.5 ml with fractionated parasite lysate) were incubated in a 37° C. water bath for a determined amount of time. After incubation, enzymatic reactions were stopped with concentrated HCl, mixed with 25% (w/v) potassium ferricyanide, and then measured in a spectrophotometer at 520 nm.

C. parvum = C. parvum infection of MDBKF5D2 cell monolayers, immunofluorescence assay at 48 hours; type: cell-based, Cryptosporidium parvum; settings: for approximate 95% C1 count (mean parasite count per field): media alone ~1800
Experimental: C. parvum oocysts at 50,000/well were incubated at 37° C. (8% CO2) on confluent MDBKF5D2 cell monolayers in 96 well microtiter plates with the following concentrations of each drug. […] The level of infection of each well was determined and analyzed by an immunofluorescence assay at 48 hours using an antibody to C. parvum sporozoites made in rabbits at a concentration of 0.1%. Fluorescein-conjugated goat anti-rabbit antibody was used at a concentration of 1%.
(8% carbon dioxide) on confluent MDBKF5D2 cell monolayers in 96 well microtiter plates. The level of infection of each well was determined and analyzed by an immunofluorescence assay at 48 hours using as an antibody C. parvum sporozoite rabbit anti-serum (0.1%), and using fluorescein-conjugated goat anti-rabbit antibody (1%). Data are expressed as mean parasite count/field when 16 fields counted at 10× magnification “s.d. of the mean” (FIG. 6).

[3] = tested on: P. falciparum asexual erythrocytic forms; assay: P. falciparum in vitro growth, clone not stated; type: cell-based, Plasmodium falciparum
Experimental: This assay is performed in folate deficient RPMI 1640 over a 66 hour incubation in plasma as described by Milhous et al. (1985). Both the W2 clone DHFR resistant phenotype and the D6 clone are used (Odula et al., 1988) (Table 3).

[4] = tested on: D6 clone of Plasmodium falciparum; assay: P. falciparum in vitro assay (Milhous et al., 1985), D6 clone; type: cell-based; settings: D6 clone, folate deficient RPMI 1640, 66 hour incubation
T. gondii = assay: Assay for synergy in vitro: inhibitors alone and together on replication of T. gondii (uracil CPM); type: cell-based, Toxoplasma gondii; settings: Drug A alone: NPMG (3.25 mM)
From the text: The effect of enzymes in pathways “in parallel” are additive and in “series” are more than the additive effect of either inhibitor used alone (i.e., synergistic). […] The shikimate pathway produces 3,4-dihdroxybenzoate which is converted to ubiquinone, an essential component of the electron transport chain. Thus, NPMG, an inhibitor of EPSP-synthase, indirectly affects ubiquinone production and, thus, the electron transport chain. Similarly, heme is required for production of cytochromes in the electron transport chain. Thus, inhibition of heme production by gabaculine also indirectly affects the conventional electron transport chain. […] T. gondii growth is measured by their ability to incorporate tritiated uracil and is expressed as counts/minute (CPM).
g) Assays for Synergy in vitro: This is an assy in which ≦50% inhibitor concentrations of two antimicrobial agents are added alone and together to determine whether there is an additive, synergistic or inhibitory interaction. All other aspects of this assay are as described herein.

T. gondii EPSP synthase = T. gondii EPSP synthase enzyme activity (HPLC); type: biochemical, Toxoplasma gondii; settings: 1 mM
Experimental: Assays for 4-aminobenzoate and 4-amino-4-deoxychorismate are performed as described previously.” Enzyme Assays: The 5-enolpyruvylshikimate-3-phosphate (EPSP) synthase assay entailed monitoring the generation of EPSP using HPLC. Reaction components were separated using a Hypersil H3APS2 HPLC column (Hichrom Limited, Reading, UK) and a NaH2PO4 elution gradient (50-400 mM). UV spectra (200-300 nm) of the colume eluate were collected to identify eluants. […] The peaks at 215 nm were integrated; the EPSP produced was quantified using a standard curve of authentic EPSP. Parasite extracts were produced at 4° C. by suspension of pure tachyzoites in extraction buffer (50 mM Tris.HCl, pH 7.5, containing complete TM protease inhibitor cocktail [Boehringer Mannheim, 1 tablet per 50 ml buffer]), sonication 3 times for 3 seconds at 30 second intervals, and centrifugation at 12000 g for 15 min. The resulting supernatant was diluted 6-fold with extraction buffer and loaded onto a ResourceQ column (1 ml, Pharmacia) equilibrated with extraction buffer. The bound protein was eluted in a single step using extraction buffer containing 500 mM Kcl. The eluted material was used for enzyme assay. The assay mix contained 1 mM phosphoenolpyruvate, 1 mM SP and 50 mM HEPES, pH 7.5. […] Protein concentrations of lysates were determined using the Lowry method. […]

[5] = tested on: human foreskin fibroblasts (HFF); assay: Toxicity: growth of fibroblasts, tritiated thymidine uptake and microscopic evaluation; type: cell-based; settings: similar concentrations (20 mM gabaculine)
Experimental: as §1, §2
d) Inhibitors: Inhibitor compounds are tested over a range of concentrations for toxicity against mammalian cells by assessing their ability to prevent cell growth as measured by tritiated thymidine uptake and inspection of the monolayer using microscopic evaluation. […]

[6] = tested on: mutant R5 strain of T. gondii; assay: Growth of mutant R5 strain of T. gondii in HFF over 8 days, uracil uptake; type: cell-based, Toxoplasma gondii; settings: gabaculine 20 mM; P/S
Experimental: Improvements were developed in the assays reported by Mack et al. (1984) and Holfels et al. (1994) to measure T. gondii replication in tissue culture. The improvements are based on microscopic visual imspection of infected and inhibitor treated cultures, and on quantitation of nucleic acid synthesis of the parasite by measure intake of ^3H uracil onto the parasite's nucleic acid. Uracil is not utilized by mammalian cells. […]
First the toxicity of gabaculine was assessed by its ability to prevent growth of human foreskin fibroblasts (HFF) as measured by ^3H-thymidine uptake and microscopic evaluation. […] Parasite growth was measured by the ability to incorporate ^3H-uracil during the last 18 hours of culture. In addition, parasite growth was evaluated microscopically in Giemsa stained slides.
This mutant strain is atovaquone resistant and posseses certain characterisitics of the tachyzoite stage and certain characteristics of the bradyzoite stage. T. gondii growth is measure by their ability to incorporate tritiated uracil and is expressed as counts/minute (CPM) on the Y-axis. […]

Compound: O=C(O)CC[N+](=O)[O-] [3-NPA, 3-Nitropropionic acid]
- CPM restricted (tritiated uracil incorporation) ([1]; 3-NPA 0.006 mg ml, 4-day, medium about 30,000 CPM): around 60%
- Isocitrate lyase enzyme activity [2]: inhibition
- effect on Cryptosporidia in vitro (C. parvum): inhibited

Compound: O=C(O)CNCP(=O)(O)O [NPMG, N-(phosphonomethyl) glycine]
- antagonism of glyphosate growth inhibition by products ([3]; asexual erythrocytic forms, PABA and folate added): PABA and folate antagonism of growth inhibition
- IC50 ([4]; read-out: IC 50): 0.823 mg/L (≈ 4.87 µM)
- IC90 ([4]; read-out: IC90): 2.51 mg/L (≈ 14.8 µM)
- CPM restricted (tritiated uracil incorporation) ([1]; NPMG 3.12 mM, 4 day, medium around 72,000): around 60%
- counts (tritiated uracil incorporation) ([1]; NPMG 4.5 mM, 4 day, medium around 72,000, no RH around 2,000 CPM): about 12,000 CPM
- product rescue: effect of added PABA on inhibition by NPMG ([1]; PABA added to cultures): abrogates
- inhibition at 4500 µM ([1]; Toxoplasma gondii, Fibroblast, 96 h, NPMG 4.5 mM, 4 day, read-out: parasite growth inhibited): ~80%
- CPM for A (T. gondii): 28138 ± 2216 CPM and 25097 ± 1398 CPM
- EPSP synthase enzyme activity (T. gondii EPSP synthase): inhibition
- approximate 95% C1 count (mean parasite count per field) (C. parvum; NPMG 0.45 μg/ml): ~1200
- approximate 95% C1 count (mean parasite count per field) (C. parvum; NPMG 4.5 μg/ml): ~900
- approximate 95% C1 count (mean parasite count per field) (C. parvum; NPMG 0.045): ~1200
- effect of PABA on the effect of NPMG on C. parvum (C. parvum; PABA added): not abrogated by PABA

Compound: NC1C=CC=C(C(=O)O)C1 (centres unmarked) [gabaculine, 3-amino-2,3-dihydrobenzoic acid]
- IC50 ([3]; Plasmodium falciparum): ≥ 45 mg/L
- toxicity to the foreskin fibroblasts [5]: no toxicity
- CPM restricted (tritiated uracil incorporation) [1]: around 50%
- counts (tritiated uracil incorporation) [1]: about 5,000 CPM
- inhibition at 5000 µM ([1]; Toxoplasma gondii, Fibroblast, 96 h, read-out: growth of T. gondii inhibited): ~60%
- Parasite growth over the 8 day time course (CPM) ([1]; gabaculine 20 mM, P/S): restricted
- Parasite growth of R5 strain over 8 days (CPM) [6]: restricted in cultures with 20 mM gabaculine (gabaculine) over the first 6 days of culture
- approximate 95% C1 count (mean parasite count per field) (C. parvum; gabaculine 0.2 μg/ml): ~1300
- approximate 95% C1 count (mean parasite count per field) (C. parvum; gabaculine 2 μg/ml): ~600
- approximate 95% C1 count (mean parasite count per field) (C. parvum; gabaculine 20 μg/ml): ~200
